The source of these data is PubChem BioAssay (NCI).

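Cells were grown in 96-well plates and exposed to each compound for 48 hours at five concentrations; endpoints were interpolated linearly between bracketing concentrations, or set to the highest concentration if not reached. GI50 marks 50% less growth. TGI: concentration producing complete growth inhibition.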

Common to all, as to assay: growth of human tumour cells (NCI), 48 h
Assay [1] has as its system ACHN renal.
Assay [2] has as its system BT-549 breast.
Assay [3] concerns HL-60(TB) leukemia.
In assay [4] the test system is MDA-MB-231 breast.
Assay [5] deals with MOLT-4 leukemia.
The subject of assay [6] is OVCAR-3 ovarian.
The subject of assay [7] is PC-3 prostate.
Assay [8] concerns RXF 393 renal.
Assay [9] concerns SK-MEL-2 melanoma.
Assay [10] has as its system SN12C renal.

Take `CC[C@@]1(O)C(=O)OCc2c1cc1n(c2=O)Cc2c-1nc1cc(F)c(C)c3c1c2[C@@H](N)CC3`: the GI50 in assay [1] was less than 0.01 µM; in assay [2], less than 0.01 µM; in assay [3] it was less than 0.01 µM; in [4] it was 0.162 µM; in assay [5] it was less than 0.01 µM; in [6], 0.0339 µM. The GI50 in assay [7] is 0.02 µM; in assay [8], less than 0.01 µM; in [9], 0.138 µM; in [10], less than 0.01 µM. Further, the TGI is 0.026 µM in assay [1]; 0.199 µM in assay [2]; greater than 100 µM in assay [4]; greater than 100 µM in [5]; 0.907 µM in assay [6]; greater than 100 µM in assay [7]. Moreover, the TGI in assay [8] was 0.0254 µM; in assay [9], 1.4 µM; in assay [10] it was greater than 100 µM.
Take `C/C(=N\NC(=S)N1CC2CCC(CC2)C1)c1ccccn1`: the GI50 in assay [1] is 0.0347 µM; in assay [2] it was 0.135 µM; in [3], 0.0482 µM; in assay [4], 0.156 µM; in assay [5], 0.0598 µM; in [6], less than 0.0141 µM. The GI50 is 0.026 µM in assay [7], 0.226 µM in [8], 0.419 µM in assay [9] and 0.228 µM in assay [10]. The TGI in assay [1] stood at 1.52 µM; in [2], 1.84 µM; in assay [3] it was 1.21 µM; in [4] it was 2.45 µM; in assay [5] it was 3.74 µM; in assay [6] it was 0.29 µM. In addition, the TGI is 1.75 µM in [7], 1.3 µM in [8], 1.99 µM in assay [9] and 2.03 µM in assay [10].
With `Nc1nc(N)nc(CCCc2nc(N)nc(N)n2)n1`, the TGI in assay [1], in assay [2], in assay [3], in [4], in assay [5] and in assay [6] was greater than 100 µM throughout. Also, the TGI in assay [7], in [8], in assay [9] and in assay [10] was greater than 100 µM in each case.
`Clc1ccc(N=CNc2ccc(-c3nc4ccccc4o3)cc2)cc1`: the GI50 was 24.4 µM in [1]; 18.7 µM in assay [2]; 38.5 µM in assay [3]; 25.6 µM in assay [4]; 60.7 µM in [5]; 11.2 µM in [6]. Further, the GI50 in assay [7] was 41.7 µM; in [8], 25.8 µM; in assay [9], 30 µM; in assay [10] it was 36.7 µM. In addition, the TGI in [1] was greater than 100 µM; in [2], 43.6 µM; in [3], greater than 100 µM; in [4], 89.4 µM; in [5], greater than 100 µM; in assay [6], 25.3 µM. The TGI in assay [7] was greater than 100 µM; in assay [8], 80.6 µM; in [9], greater than 100 µM; in assay [10] it was greater than 100 µM.
On to `CCCCCCCCCCCCOC1C(C(CC(=O)NCCN2CCCC2)NS(=O)(=O)c2cc(Cl)cc(Cl)c2)OC2OC(C)(C)OC21` (stereo not drawn), for which the GI50 is 1.9 µM in assay [1]; 1.79 µM in assay [2]; 1.64 µM in assay [3]; 1.81 µM in assay [4]; 2.03 µM in [5]; 1.87 µM in [6]. For the same molecule, the GI50 in [7] is 1.64 µM; in assay [8] it was 2.2 µM; in assay [9], 2.63 µM; in assay [10], 1.76 µM. Further, the TGI in assay [1] was found to be 3.37 µM; in assay [2] it was 3.24 µM; in assay [3], 3.76 µM; in assay [4], 3.23 µM; in assay [5] it was 4.33 µM; in [6], 3.72 µM. Also, the TGI is 3.02 µM in assay [7], 4.72 µM in assay [8], 4.95 µM in assay [9] and 3.23 µM in assay [10].
Consider `O=C(OCc1ccc2c(Cl)cc(Cl)c(O)c2n1)N1CCN(C(=O)c2cc3cc(F)ccc3[nH]2)CC1`, for which the GI50 in assay [1] is 0.611 µM; in [2], 1.17 µM; in [3], 1.06 µM; in assay [4], 1.07 µM; in [5] it was 1.02 µM; in assay [6] it was 0.501 µM. In addition, the GI50 in assay [7] was 1.59 µM; in [8], 3.03 µM; in [9], 3.23 µM; in assay [10] it was 1.15 µM. The TGI is greater than 100 µM in assay [1]; greater than 24 µM in assay [2]; 3.53 µM in assay [3]; greater than 55.6 µM in [4]; greater than 100 µM in [5]; 3.7 µM in assay [6]. Also, the TGI in assay [7], in assay [8], in assay [9] and in assay [10] was greater than 100 µM in each case.
Regarding `C[C@]12CC[C@@H]3c4ccc(O)c([N+](=O)[O-])c4CC[C@H]3[C@@H]1CC[C@@H]2NS(=O)(=O)c1cccc(Br)c1`, the GI50 in [1] is 2.59 µM; in assay [2] it was 1.91 µM; in [3], 2.4 µM; in [4] it was 1.85 µM; in assay [5], 2.98 µM; in assay [6] it was 2.43 µM. Further, the GI50 is 2.56 µM in assay [7], 2.03 µM in assay [8], 2.35 µM in assay [9] and 1.72 µM in [10]. Further, the TGI in assay [1] is 8.17 µM; in [2] it was 3.93 µM; in assay [3], 6.04 µM; in [4] it was 4.14 µM; in [5] it was 13.4 µM; in [6] it was 5.64 µM. In addition, the TGI stood at 11.1 µM in [7], 4.21 µM in [8], 5.34 µM in assay [9] and 3.54 µM in [10].
`O=C(NCc1ccc(S(=O)(=O)c2cc(F)cc(F)c2)cc1)c1ccc2nccn2c1`: the GI50 is 21.1 µM in assay [1]; 0.296 µM in [2]; greater than 40.2 µM in assay [3]; 20 µM in [4]; greater than 27.2 µM in [5]; 1.32 µM in [6]. In addition, the GI50 in assay [8] was greater than 44.8 µM; in assay [9], 20.1 µM; in [10], less than 0.01 µM. For the same molecule, the TGI in assay [1] was greater than 100 µM; in assay [2], 12.1 µM; in assay [3] it was greater than 100 µM; in assay [4] it was greater than 100 µM; in assay [5] it was greater than 100 µM; in [6] it was greater than 100 µM. Besides, the TGI in assay [7] is greater than 100 µM; in assay [8], greater than 72.4 µM; in assay [9], greater than 74.9 µM; in assay [10], greater than 100 µM.
